System: panel of cancer cell lines
Test: Cell viability (CellTiter-Glo) dose-response across cancer cell line panel;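 on EC50: after 72 h compound incubation with CellTiter-Glo ATP readout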
Format: cell-based, human
Conditions: for EC50: Homo sapiens
Text: Next, we explored the effect of CSN5 inhibition on the viability of cancer cells. To obtain a comprehensive picture, we generated dose–response curves with a CSN5 inhibitor across more than 500 cancer cell lines in a previously described standardized setting[47] (Supplementary Data 1).
A standardized CellTiter-Glo Assay (Promega #G7570) based on the quantification of ATP was applied according to the manufacturer's protocol to measure the amount of viable cells in culture. In brief, cells were seeded into 384-well plates at optimal density for each cell line. After 4 h, compounds were added at different concentrations in growth medium and incubated for another 72 h in a humidifying chamber at 37 °C and 5% CO2. […] EC50 values were calculated from the plot of percentage of inhibition versus inhibitor concentration using the nonlinear regression analysis software Origin 7.5SR6 (OriginLab Corp.).

## COCc1ccccc1NCc1ccc([C@H]2[C@@H](O)CCCc3cncn32)c(-c2ccccc2Cl)c1 [CSN5i-2, (5S,6S)-5-(2′-chloro-5-(((2-(methoxymethyl)phenyl)amino)methyl)-[1,1′-biphenyl]-2-yl)-6,7,8,9-tetrahydro-5H-imidazo[1,5-a]azepin-6-ol]
SNU-449, SNU-449
  EC50: 2130 nM
SNU-475, SNU-475
  EC50: 2610 nM
SNU-685
  EC50: 2090 nM
SNU-738
  EC50: 14200 nM
SNU-761
  EC50: 281 nM
SNU-1040
  EC50: 26800 nM
SNU-1079
  EC50: 661 nM
SNU-C1, SNU-C1
  EC50: 11700 nM
SNU-C2A
  EC50: 5180 nM
SNU-C4, SNU-C4
  EC50: 2280 nM
SNU-C5
  EC50: 513 nM
SR-786, SR-786
  EC50: 515 nM
SU-DHL10, SU-DHL-10
  EC50: 649 nM
SU-DHL-4, SU-DHL-4
  EC50: 703 nM
SU-DHL-5, SU-DHL-5
  EC50: 161 nM
SU-DHL-6, SU-DHL-6
  EC50: 261 nM
SU-DHL-8, SU-DHL-8
  EC50: 467 nM
SU.86.86, SU.86.86
  EC50: 27000 nM
SUIT-2, SUIT-2
  EC50: 2040 nM
SUM44PE
  EC50: 17000 nM
SUM52PE
  EC50: 4060 nM
SUM149PT
  EC50: 883 nM
SUM185PE
  EC50: 11200 nM
SUM190PT
  EC50: 2950 nM
SUP-T1, SUP-T1
  EC50: 768 nM
SW48, SW48
  EC50: 3240 nM
SW480, SW480
  EC50: 1840 nM
SW837, SW837
  EC50: > 30000 nM
SW900, SW 900
  EC50: 1450 nM
SW982, SW982
  EC50: 1380 nM
SW1271, SW 1271
  EC50: 766 nM
SW1353, SW 1353
  EC50: 1370 nM
SW1573, SW 1573
  EC50: 1070 nM
SW1783, SW 1783
  EC50: 358 nM
SW-403, SW403
  EC50: > 30000 nM
SW-620, SW620
  EC50: 2980 nM
SYO-1
  EC50: 472 nM
Sq-1
  EC50: 1270 nM
T3M4, T3M-4
  EC50: 2420 nM
T47D, T-47D
  EC50: 1030 nM
TALL-1, TALL-1
  EC50: 639 nM
TANOUE
  EC50: 248 nM
TC-71, TC-71
  EC50: 1990 nM
TCC-PAN2
  EC50: 817 nM
TE-1, TE-1
  EC50: 751 nM
TE-6, TE-6
  EC50: 1680 nM
TE-11, TE-11
  EC50: 1030 nM
TE-14
  EC50: 3660 nM
TE-15, TE-15
  EC50: 69.5 nM
TF-1, TF-1
  EC50: 2590 nM
THP-1, THP-1
  EC50: 636 nM
TT2609-C02
  EC50: 1770 nM
TYK-nu
  EC50: 155 nM
U266B1
  EC50: 485 nM
U-87 MG
  EC50: 1190 nM
U-118-MG, U-118 MG
  EC50: 1290 nM
U-251, U-251 MG
  EC50: 1610 nM
U-937, U-937
  EC50: 354 nM
UACC-62, UACC-62
  EC50: 3710 nM
UACC-257, UACC-257
  EC50: 556 nM
UCH1, UCH-1
  EC50: 415 nM
UKE1, UKE1
  EC50: 160 nM
VM-CUB-1, VM-CUB1
  EC50: 6690 nM
VMRC-LCD
  EC50: 961 nM
VMRC-RCW
  EC50: 2190 nM
WM 266-4, WM-266-4
  EC50: 1440 nM
WM983B, WM-983B
  EC50: 1390 nM
WM-88
  EC50: 20100 nM
  AMAX: -55.011
WM-115, WM-115
  EC50: 1250 nM
WM-1799, WM1799
  EC50: 1750 nM
WSU-WM
  EC50: 814 nM
YAPC
  EC50: 569 nM
Hs 294T
  AMAX: -53.6994
Hs 695T
  AMAX: -69.7728
Hs 936.T
  AMAX: -84.1429
HuG1-N
  AMAX: -75.3496
HuH-7
  AMAX: -82.3154
IGR-37
  AMAX: -80.2025
IGROV1
  AMAX: -66.8455
IPC-298
  AMAX: -65.2966
Ishikawa
  AMAX: -71.6276
JHH-4
  AMAX: -91.4689
JHOS-2
  AMAX: -38.1051
JHUEM-2
  AMAX: -86.9649
JL-1
  AMAX: -47.9564
JVM-2
  AMAX: -85.1393
KARPAS-422
  AMAX: -79.6206
KATO III
  AMAX: -58.0161
KBM-7
  AMAX: -95.2333
KE-97
  AMAX: -97.8925
KMRC-1
  AMAX: -54.4009
KP4
  AMAX: -68.6951
KP-1N
  AMAX: -56.9313
KP-3
  AMAX: -58.802
KU-19-19
  AMAX: -51.5044
KYSE-150
  AMAX: -49.8534
KYSE-180
  AMAX: -63.0038
Kasumi3
  AMAX: -93.6402
LUDLU-1
  AMAX: -71.9634
MFE-280
  AMAX: -66.9982
MG-63
  AMAX: -59.1323
MM138
  AMAX: -89.9344
MM415
  AMAX: -88.4479
MM426
  AMAX: -60.9162
MM485
  AMAX: -69.291
MM537
  AMAX: -73.4726
MM576
  AMAX: -52.394
MOLM-16
  AMAX: -89.6899
MOLT-13
  AMAX: -95.3007
MeWo
  AMAX: -53.7976
NB-1
  AMAX: -92.7531
NCI-H82
  AMAX: -95.3022
NCI-H211
  AMAX: -68.3447
NCI-H322
  AMAX: -37.8008
NCI-H441
  AMAX: -64.9424
NCI-H647
  AMAX: -44.0246
NCI-H650
  AMAX: -44.5856
NCI-H810
  AMAX: -67.8352
NCI-H841
  AMAX: -78.3347
NCI-H1155
  AMAX: -84.5649
NCI-H1299
  AMAX: -58.5091
NCI-H1339
  AMAX: -66.5268
NCI-H1373
  AMAX: -65.8548
NCI-H1568
  AMAX: -93.8026
NCI-H2087
  AMAX: -59.3219
NCI-H2122
  AMAX: -79.8003
NCI-H2126
  AMAX: -18.8926
NCI-H2172
  AMAX: -75.6398
NCI-H2452
  AMAX: -33.7782
NCI-N87
  AMAX: -47.3502
ONCO-DG-1
  AMAX: -61.2577
OUMS-23
  AMAX: -82.8646
OV56
  AMAX: -76.0147
P3HR-1
  AMAX: -76.4402
P12-ICHIKAWA
  AMAX: -95.4636
PC-3
  AMAX: -57.0972
Panc 03.27
  AMAX: -70.0008
Panc 10.05
  AMAX: -84.7778
RT-112
  AMAX: -42.1113
SEM
  AMAX: -97.9816
SK-ES-1
  AMAX: -89.0847
other, less sensitive cell lines of the panel
  maximal loss of viability: 40–60%
Some cell lines of the panel (cytotoxic)
  Amax (high-concentration effect level): ≤ −80%

Source: PMC5078989, “Targeted inhibition of the COP9 signalosome for treatment of cancer” (Nature Communications, 2016)
